Where “and” joins values, the source holds several entries; their conditions need not be identical. Equal entries are not always repeated.
Experiments:
Apelin receptor = biological target: T1, Apelin receptor (Homo sapiens, UniProt P35414); test: Agonist activity at human APJ expressed in HEK293 cells assessed as inhibition of forskolin-stimulated cAMP production; format: functional, cell-based
T1 sequence (P35414 whole entry): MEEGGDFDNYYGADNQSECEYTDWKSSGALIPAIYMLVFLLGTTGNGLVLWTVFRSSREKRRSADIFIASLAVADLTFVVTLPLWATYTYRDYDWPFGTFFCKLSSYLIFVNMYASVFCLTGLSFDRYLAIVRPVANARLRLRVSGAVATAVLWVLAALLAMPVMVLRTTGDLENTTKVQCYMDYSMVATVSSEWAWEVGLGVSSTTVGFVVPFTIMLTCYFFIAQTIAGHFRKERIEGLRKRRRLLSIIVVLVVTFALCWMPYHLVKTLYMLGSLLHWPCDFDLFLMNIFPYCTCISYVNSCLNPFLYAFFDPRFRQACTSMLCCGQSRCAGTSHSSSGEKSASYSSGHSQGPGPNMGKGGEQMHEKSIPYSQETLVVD

[1] = Permeability of compound at pH 7.4 by PAMPA assay; format: ADME; conditions: read-out: permeability
[2] = AUC in mouse at 10 mg/kg, po; format: ADME, organism-based; conditions: in vivo
[3] = biological target: T2, Nuclear receptor subfamily 1 group I member 2 (Homo sapiens, UniProt O75469); test: Agonist activity at PXR (unknown origin)
T2 sequence (O75469 whole entry): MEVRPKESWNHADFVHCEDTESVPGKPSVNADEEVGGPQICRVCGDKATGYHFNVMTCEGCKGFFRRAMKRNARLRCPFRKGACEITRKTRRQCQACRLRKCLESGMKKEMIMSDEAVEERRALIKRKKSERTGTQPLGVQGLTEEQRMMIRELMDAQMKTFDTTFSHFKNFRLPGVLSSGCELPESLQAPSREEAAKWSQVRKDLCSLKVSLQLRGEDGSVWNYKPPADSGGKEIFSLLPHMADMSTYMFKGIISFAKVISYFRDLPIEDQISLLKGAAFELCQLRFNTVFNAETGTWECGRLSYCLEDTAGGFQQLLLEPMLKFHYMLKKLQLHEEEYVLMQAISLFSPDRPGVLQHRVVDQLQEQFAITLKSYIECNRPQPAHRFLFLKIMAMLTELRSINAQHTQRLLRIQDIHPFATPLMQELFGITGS

[4] = biological target: Voltage-gated inwardly rectifying potassium channel KCNH2 (Homo sapiens, UniProt Q12809); test: Inhibition of human ERG
[5] = Cmax in mouse at 10 mg/kg, po; format: ADME, organism-based; set-up: dose 10 mg/kg, route oral; conditions: in vivo
[6] = biological target: CYP450 (isoform not stated) (Homo sapiens, UniProt P04798+P05177+P05181+P08684+P10632+P10635+P11509+P11712+P13584+P20813+P20815+P20853+P24462+P24903+P33260+P33261+P51589+P78329+P98187+Q02928+Q08477+Q16678+Q16696+Q5TCH4+Q6VVX0+Q7Z449+Q8TAV3+Q96SQ9+Q9HB55); test: Inhibition of CYP450 (unknown origin); format: ADME, protein assay
[7] = Permeability of compound at pH 5.5 by PAMPA assay; format: ADME; conditions: read-out: permeability
[8] = Tmax in mouse at 10 mg/kg, po; format: ADME, organism-based; conditions: in vivo
[9] = biological target: T3, Apelin receptor (Homo sapiens) (UniProt P35414); test: Agonist activity at human APJ expressed in HEK293 cells assessed as inhibition of forskolin-stimulated cAMP production at 10 uM relative to control; format: functional, cell-based
T3 sequence (whole entry): T1 sequence (P35414 whole entry)

Sequence of Voltage-gated inwardly rectifying potassium channel KCNH2 (Q12809 whole entry): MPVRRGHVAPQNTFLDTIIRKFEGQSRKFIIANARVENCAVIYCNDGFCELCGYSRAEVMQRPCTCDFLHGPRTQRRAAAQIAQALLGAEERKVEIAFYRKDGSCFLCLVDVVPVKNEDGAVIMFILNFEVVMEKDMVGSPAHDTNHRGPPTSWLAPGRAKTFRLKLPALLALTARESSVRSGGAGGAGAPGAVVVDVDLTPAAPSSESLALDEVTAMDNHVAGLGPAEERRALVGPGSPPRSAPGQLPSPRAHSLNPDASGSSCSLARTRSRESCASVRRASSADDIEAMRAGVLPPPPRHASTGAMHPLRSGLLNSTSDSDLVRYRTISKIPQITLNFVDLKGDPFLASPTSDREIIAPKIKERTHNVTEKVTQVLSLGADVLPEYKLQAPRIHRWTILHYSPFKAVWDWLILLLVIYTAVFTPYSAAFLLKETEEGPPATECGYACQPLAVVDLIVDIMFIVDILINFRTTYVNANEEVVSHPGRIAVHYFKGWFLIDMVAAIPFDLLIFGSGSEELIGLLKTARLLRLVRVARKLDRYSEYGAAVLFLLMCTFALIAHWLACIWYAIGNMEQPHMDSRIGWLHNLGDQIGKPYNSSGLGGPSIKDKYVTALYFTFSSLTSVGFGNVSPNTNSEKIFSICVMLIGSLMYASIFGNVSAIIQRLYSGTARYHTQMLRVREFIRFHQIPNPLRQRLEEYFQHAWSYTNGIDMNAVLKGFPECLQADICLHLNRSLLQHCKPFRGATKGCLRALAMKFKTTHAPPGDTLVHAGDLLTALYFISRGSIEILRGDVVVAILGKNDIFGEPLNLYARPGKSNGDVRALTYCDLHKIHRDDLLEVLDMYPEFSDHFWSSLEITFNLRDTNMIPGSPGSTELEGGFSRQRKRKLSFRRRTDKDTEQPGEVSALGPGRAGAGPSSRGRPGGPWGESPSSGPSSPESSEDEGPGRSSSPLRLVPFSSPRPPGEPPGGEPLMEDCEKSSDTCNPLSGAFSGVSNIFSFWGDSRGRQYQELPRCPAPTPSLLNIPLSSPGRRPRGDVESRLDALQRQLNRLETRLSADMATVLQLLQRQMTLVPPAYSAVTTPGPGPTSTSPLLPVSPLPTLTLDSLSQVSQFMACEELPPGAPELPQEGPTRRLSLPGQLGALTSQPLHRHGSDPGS

Row | SMILES | EC50 (Apelin receptor) | other results
1 | CCCSc1nc(=O)cc(O)n1-c1ccc(OC)cc1 | 680 nM | 
2 | CCCSc1nc(=O)c(C)c(O)n1-c1ccccc1OC | 1400 nM | 
3 | CCCCc1nc(=O)cc(O)n1-c1ccccc1OC | 22 nM and 24 nM and 31 nM | 
4 | CCCSc1nc(=O)c(CC)c(O)n1-c1ccccc1OC | 860 nM | 
5 | CCCSc1nc(=O)c(Cc2ccccc2)c(O)n1-c1ccccc1OC | 340 nM | 
6 | CCCSc1nc(=O)cc(O)n1-c1cccc(C)c1 | 290 nM | 
7 | CCCSc1nc(=O)cc(O)n1-c1cccc(OC)c1 | 940 nM | 
8 | CCCSc1nc(=O)cc(O)n1-c1ccccc1OC | 64 nM and 40 nM and 160 nM | Papp [1]: 13.1 ×10⁻⁶ cm/s; AUC [2]: 29 µM·h; EC50 [3]: > 50 µM; IC50 [4]: > 80 µM; Cmax [5]: 4.4 µM; IC50 [6]: > 20 µM; Papp [7]: 23 ×10⁻⁶ cm/s; Tmax [8]: 4 h
9 | CCCSc1nc(=O)cc(O)n1-c1ccccc1F | 160 nM | 
10 | CCCCc1c(O)n(-c2ccccc2OC)c(SCCC)nc1=O | 1700 nM | 
11 | CCCCc1nc(=O)cc(O)n1-c1c(C)cccc1OC | 5 nM and 3 nM and 2 nM | Papp [1]: 1 ×10⁻⁶ cm/s; AUC [2]: 10.2 µM·h; EC50 [3]: > 14 µM; IC50 [4]: > 80 µM; Cmax [5]: 1.68 µM; IC50 [6]: > 20 µM; Papp [7]: 1.2 ×10⁻⁶ cm/s; Tmax [8]: 4 h
12 | CCCSc1nc(=O)cc(O)n1-c1ccccc1Cl | 250 nM | 
13 | CCCSc1nc(=O)cc(O)n1-c1ccccc1 | 5000 nM | Efficacy [9]: 100%
14 | C=CCc1c(O)n(-c2ccccc2OC)c(SCCC)nc1=O | 570 nM | 
15 | CCCCSc1nc(=O)cc(O)n1-c1ccccc1OC | 200 nM | 
16 | CCCSc1nc(=O)cc(O)n1-c1ccc(C)cc1 | 260 nM | 
17 | C=CCn1c(O)cc(=O)nc1SC(C)CC (stereo not given) | 4400 nM | Efficacy [9]: 100%
18 | CCCSc1nc(=O)c(C(C)C)c(O)n1-c1ccccc1OC | 450 nM | 

Continued, in another order:

Row | EC50 (Apelin receptor) | SMILES | other results
19 | 140 nM | CCCSc1nc(=O)cc(O)n1-c1ccccc1CC | 
20 | 90 nM | CCCSc1nc(=O)cc(O)n1-c1ccccc1C(F)(F)F | 
21 | 23 nM | COc1ccccc1-n1c(O)cc(=O)nc1SC(C)C | 
22 | 78 nM | COc1ccccc1-n1c(O)cc(=O)nc1SCC(C)C | 
23 | 100 nM | CCCSc1nc(=O)cc(O)n1-c1ccccc1OCC | 
24 | 11 nM | CCCCc1nc(=O)cc(O)n1-c1c(OC)cccc1OC | 
25 | 13 nM | CCCCc1nc(=O)c(Cc2ccc(OC)cc2)c(O)n1-c1c(OC)cccc1OC | 
26 | 100 nM | CCCSc1nc(=O)cc(O)n1-c1ccccc1C | 
27 | 155 nM | CCCSc1nc(=O)cc(O)n1-c1ccccc1Br | 
